Assay results taken from the CheMixHub viscosity set.

Assay: xn = mol fraction of the nth substance listed

NC=O + CCC(C)O
101 kPa
Conditions | viscosity [mPa·s]
293.15 K, x1 = 0.5093 | 4.025
318.15 K, x1 = 0.9024 | 2.175

CN1CCC[C@H]1c1cccnc1 + CCCC(=O)O
viscosity [mPa·s], 101 kPa
Conditions | 298.15 K | 323.15 K
x1 = 0.099 | 11.74 | 5.188
x1 = 0.1992 | 48.69 | 14.24
x1 = 0.2139 | 52.39 | 14.9
x1 = 0.2277 | 53.82 | 15.04
x1 = 0.234 | 53.97 | 15.13
x1 = 0.2478 | 54.2 | 14.99
x1 = 0.2707 | 53.87 | 14.89
x1 = 0.2993 | 50.77 | 13.9
x1 = 0.3872 | 29.61 | 9.46
x1 = 0.5011 | 17.55 | –
x1 = 0.6081 | 11.63 | 4.462
x1 = 0.697 | 8.404 | 3.766
x1 = 0.804 | 6.265 | 2.983
x1 = 0.8928 | 5.192 | 2.579

CCOC(=O)CCC(=O)OCC + CCCC(=O)OCC
Conditions | viscosity [mPa·s]
303.15 K, 100 kPa, x2 = 0.3003 | 1.535

CCCCCCCCCCC + CCCCC
viscosity [mPa·s]
Conditions | 293.15 K | 298.15 K | 303.15 K | 308.15 K | 313.15 K | 318.15 K | 323.15 K
100 kPa, x2 = 0.1034 | 1.033 | 0.957 | 0.887 | 0.825 | 0.77 | 0.721 | 0.677
100 kPa, x2 = 0.2018 | 0.906 | 0.842 | 0.784 | 0.732 | 0.686 | 0.645 | 0.607
100 kPa, x2 = 0.3079 | 0.774 | 0.723 | 0.676 | 0.634 | 0.597 | 0.563 | 0.531
100 kPa, x2 = 0.3996 | 0.689 | 0.645 | 0.606 | 0.571 | 0.538 | 0.509 | 0.483
100 kPa, x2 = 0.5027 | 0.594 | 0.556 | 0.523 | 0.494 | 0.468 | 0.444 | 0.422
100 kPa, x2 = 0.6106 | 0.488 | 0.461 | 0.437 | 0.415 | 0.395 | 0.376 | 0.366
100 kPa, x2 = 0.702 | 0.427 | 0.405 | 0.386 | 0.368 | 0.358 | – | –
100 kPa, x2 = 0.8003 | 0.359 | 0.341 | 0.324 | 0.308 | – | – | –
100 kPa, x2 = 0.8988 | 0.287 | 0.273 | 0.259 | – | – | – | –
101.33 kPa, x2 = 0.0962 | – | 0.9653 | – | – | – | – | –
101.33 kPa, x2 = 0.1826 | – | 0.8798 | – | – | – | – | –
101.33 kPa, x2 = 0.274 | – | 0.7841 | – | – | – | – | –
101.33 kPa, x2 = 0.368 | – | 0.6944 | – | – | – | – | –
101.33 kPa, x2 = 0.4834 | – | 0.5825 | – | – | – | – | –
101.33 kPa, x2 = 0.5738 | – | 0.5061 | – | – | – | – | –
101.33 kPa, x2 = 0.6599 | – | 0.4333 | – | – | – | – | –
101.33 kPa, x2 = 0.7461 | – | 0.3731 | – | – | – | – | –
101.33 kPa, x2 = 0.8967 | – | 0.2805 | – | – | – | – | –

CCCCCCCCCCC + CCCCCC
viscosity [mPa·s]
Conditions | 293.15 K | 298.15 K | 303.15 K | 308.15 K | 313.15 K | 318.15 K | 323.15 K
100 kPa, x2 = 0.1021 | 1.036 | 0.958 | 0.89 | 0.828 | 0.773 | 0.724 | 0.68
100 kPa, x2 = 0.1994 | 0.934 | 0.867 | 0.804 | 0.751 | 0.704 | 0.662 | 0.623
100 kPa, x2 = 0.306 | 0.819 | 0.763 | 0.712 | 0.668 | 0.627 | 0.591 | 0.558
100 kPa, x2 = 0.4014 | 0.731 | 0.684 | 0.64 | 0.602 | 0.567 | 0.535 | 0.507
100 kPa, x2 = 0.4991 | 0.646 | 0.606 | 0.57 | 0.538 | 0.508 | 0.481 | 0.456
100 kPa, x2 = 0.601 | 0.563 | 0.53 | 0.5 | 0.473 | 0.449 | 0.426 | 0.406
100 kPa, x2 = 0.7028 | 0.489 | 0.462 | 0.438 | 0.415 | 0.395 | 0.377 | 0.36
100 kPa, x2 = 0.7989 | 0.424 | 0.402 | 0.383 | 0.365 | 0.348 | 0.333 | 0.319
100 kPa, x2 = 0.9 | 0.364 | 0.347 | 0.331 | 0.315 | 0.302 | 0.292 | 0.28
101.33 kPa, x2 = 0.1036 | – | 0.963 | – | – | – | – | –
101.33 kPa, x2 = 0.1988 | – | 0.876 | – | – | – | – | –
101.33 kPa, x2 = 0.2999 | – | 0.7746 | – | – | – | – | –
101.33 kPa, x2 = 0.4051 | – | 0.6933 | – | – | – | – | –
101.33 kPa, x2 = 0.5076 | – | 0.609 | – | – | – | – | –
101.33 kPa, x2 = 0.606 | – | 0.5391 | – | – | – | – | –
101.33 kPa, x2 = 0.7068 | – | 0.4643 | – | – | – | – | –
101.33 kPa, x2 = 0.8048 | – | 0.4044 | – | – | – | – | –
101.33 kPa, x2 = 0.9022 | – | 0.3552 | – | – | – | – | –

CCCCCCCCCCC + CCCCCCC
viscosity [mPa·s]
Conditions | 100 kPa | 101.33 kPa
297.15 K, x2 = 0.5 | – | 0.6901
298.15 K, x2 = 0.1084 | – | 0.9818
298.15 K, x2 = 0.2093 | – | 0.8983
298.15 K, x2 = 0.3019 | – | 0.8173
298.15 K, x2 = 0.4051 | – | 0.7452
298.15 K, x2 = 0.5067 | – | 0.672
298.15 K, x2 = 0.6076 | – | 0.6072
298.15 K, x2 = 0.7041 | – | 0.5479
298.15 K, x2 = 0.8052 | – | 0.4894
298.15 K, x2 = 0.8998 | – | 0.4335
302.98 K, x2 = 0.8 | 0.4886 | –
303.09 K, x2 = 0.5 | 0.6364 | 0.6364
312.85 K, x2 = 0.5 | – | 0.563
323.04 K, x2 = 0.5 | 0.5009 | 0.5009

CCCCCCCCCCC + CCCCCCCC
298.15 K, 101.33 kPa
Conditions | viscosity [mPa·s]
x2 = 0.1011 | 1.012
x2 = 0.2077 | 0.9375
x2 = 0.3112 | 0.8621
x2 = 0.406 | 0.8112
x2 = 0.5073 | 0.7521
x2 = 0.6089 | 0.7019
x2 = 0.7063 | 0.645
x2 = 0.8047 | 0.6014
x2 = 0.9039 | 0.5503

CCCCCCCCCCC + CCCCCCCCC
298.15 K, 101.33 kPa
Conditions | viscosity [mPa·s]
x2 = 0.1034 | 1.03
x2 = 0.2088 | 0.9658
x2 = 0.3024 | 0.931
x2 = 0.4073 | 0.8929
x2 = 0.5057 | 0.8476
x2 = 0.6037 | 0.8141
x2 = 0.7055 | 0.77
x2 = 0.8002 | 0.7331
x2 = 0.9038 | 0.687

CCCCCCCCCCC + CCCCCCCCCC
298.15 K, 101.33 kPa
Conditions | viscosity [mPa·s]
x2 = 0.1074 | 1.056
x2 = 0.2094 | 1.03
x2 = 0.3054 | 1.009
x2 = 0.4086 | 0.9854
x2 = 0.5085 | 0.9556
x2 = 0.608 | 0.9393
x2 = 0.7092 | 0.9206
x2 = 0.8045 | 0.9013
x2 = 0.9056 | 0.868

CCCCCCCCCCC + CCCCCCCCCCCC
298.15 K, 101.33 kPa
Conditions | viscosity [mPa·s]
x1 = 0.106 | 1.314
x1 = 0.2057 | 1.297
x1 = 0.3093 | 1.253
x1 = 0.4136 | 1.236
x1 = 0.5553 | 1.196
x1 = 0.6095 | 1.175
x1 = 0.7174 | 1.143
x1 = 0.8145 | 1.126
x1 = 0.9084 | 1.11

CCCCCCCCCCC + CCCCCCCCCCCCCCCC
298.15 K, 101.33 kPa
Conditions | viscosity [mPa·s]
x1 = 0.1095 | 2.783
x1 = 0.2008 | 2.549
x1 = 0.3116 | 2.315
x1 = 0.4052 | 2.108
x1 = 0.5071 | 1.905
x1 = 0.6081 | 1.723
x1 = 0.7051 | 1.534
x1 = 0.806 | 1.363
x1 = 0.9031 | 1.209

CCCCCCCCCCC + CCCCCCCCCCO
viscosity [mPa·s], 100 kPa
Conditions | x1 = 0.1003 | x1 = 0.2003 | x1 = 0.3005 | x1 = 0.3972 | x1 = 0.4989 | x1 = 0.5997 | x1 = 0.7007 | x1 = 0.8 | x1 = 0.8987
293.15 K | 10.47 | 7.7 | 5.667 | 4.374 | 3.193 | 2.542 | 1.992 | 1.626 | 1.378
298.15 K | 8.685 | 6.471 | 4.833 | 3.775 | 2.8 | 2.254 | 1.793 | 1.486 | 1.256
303.15 K | 7.267 | 5.479 | 4.152 | 3.283 | 2.477 | 2.015 | 1.628 | 1.368 | 1.154
308.15 K | 6.125 | 4.678 | 3.591 | 2.873 | 2.202 | 1.814 | 1.508 | 1.252 | 1.06
313.15 K | 5.2 | 4.018 | 3.127 | 2.533 | 1.97 | 1.644 | 1.376 | 1.149 | 0.979
318.15 K | 4.447 | 3.475 | 2.741 | 2.26 | 1.773 | 1.518 | 1.256 | 1.058 | 0.908
323.15 K | 3.825 | 3.02 | 2.418 | 2.006 | 1.655 | 1.382 | 1.152 | 0.975 | 0.846
